Laboratory results: patent US20100234220A1, “Oxooxetanes as Fungicidal Agents” (Bayer CropScience AG, priority 2006, published 2010)

Legend:
Venturia inaequalis = assay: Venturia test (apple)/protective; assay type: in vivo; conditions: protective, 100 ppm, evaluation 10 days after inoculation
Method: Venturia Test (Apple)/Protective [table] To produce a suitable preparation of active compound, 1 part by weight of active compound is mixed with the stated amounts of solvents and emulsifier, and the concentrate is diluted with water to the desired concentration. To test for protective activity, young plants are sprayed with the preparation of active compound at the stated application rate. After the spray coating has dried on, the plants are inoculated with an aqueous conidia suspension of the apple scab pathogen Venturia inaequalis and then remain in an incubation cabin at about 20° C. and 100% relative atmospheric humidity for 1 day. The plants are then placed in a greenhouse at about 21° C. and a relative atmospheric humidity of about 90%.

[1] = logP determination by HPLC (gradient method, 0.08% HCO2H)

Row | SMILES | efficacy (Venturia inaequalis) [%] | chromatographic logP [1]
1 | CC[C@H](C)[C@@H]1C(=O)O[C@H]1C(=O)NCc1cc(OC)cc(OC)c1 [Example 1, (3S)-(1S-Methylpropyl)-(2R)-(3,5-dimethoxybenzylaminocarbonyl)-4-oxooxetane] | ≥ 70 | –
2 | CC[C@H](C)[C@@H]1C(=O)O[C@H]1C(=O)Nc1cc(OC)c(OC)c(OC)c1 [Example 3, (2R,3S)-3-[(1S)-1-methylpropyl]-4-oxo-N-(3,4,5-trimethoxyphenyl)oxetane-2-carboxamide] | – | 2.5
3 | CC[C@H](C)[C@@H]1C(=O)O[C@H]1C(=O)NCc1ccc(Cl)cc1 [Example 2, (2R,3S)—N-(4-chlorobenzyl)-3-[(1S)-1-methylpropyl]-4-oxooxetane-2-carboxamide] | – | 3.04
